# Data reported in ChEMBL document CHEMBL4665816, “Syringoleosides A-H, Secoiridoids from Syringa dilatata Flowers and Their Inhibition of NO Production in LPS-Induced RAW 264.7 Cells” (J Nat Prod, 2020).
# Tested on: RAW264.7
# Assay: Anti-inflammatory activity in mouse RAW264.7 cells assessed as inhibition of LPS-induced NO production after 24 hrs by Griess reagent-based assay
# Format: functional, cell-based
# Conditions: RAW264.7, 24 h
row,SMILES,IC50
1,C/C=C1/[C@H](O[C@@H]2O[C@H](CO)[C@@H](O)[C@H](O)[C@H]2O)OC=C(C(=O)OC)[C@H]1CC(=O)OC,> 80 µM
2,C/C=C1/[C@H](O[C@@H]2O[C@H](CO)[C@@H](O)[C@H](O)[C@H]2O)OC=C(C(=O)OC)[C@H]1CC(=O)OC[C@H]1O[C@@H](OCCc2ccccc2)[C@H](O)[C@@H](O)[C@@H]1O,65.7 µM
3,C/C=C1/[C@H](O[C@@H]2O[C@H](CO)[C@@H](OC(=O)/C=C/c3ccc(O)c(O)c3)[C@H](O)[C@H]2O)OC=C(C(=O)OC)[C@H]1CC(=O)O[C@@H]1[C@@H](O)[C@@H](O)[C@H](O[C@H]2[C@H](O)[C@@H](O)[C@H](OCCc3ccc(O)c(O)c3)O[C@@H]2CO)O[C@H]1C,> 80 µM
4,C/C=C1/[C@H](O[C@@H]2O[C@H](CO)[C@@H](O)[C@H](O)[C@H]2O)OC=C(C(=O)OC)[C@H]1CC(=O)OC[C@H]1O[C@@H](OCCc2ccc(O)cc2)[C@H](O)[C@@H](O)[C@@H]1O,59.8 µM
5,C/C=C1/[C@H](O[C@@H]2O[C@H](CO)[C@@H](O)[C@H](O)[C@H]2O)OC=C(C(=O)OC)[C@H]1CC(=O)O[C@H]1[C@H](O[C@@H]2OC=C(C(=O)OC)[C@@H](CC(=O)OC[C@H]3O[C@@H](OCCc4ccc(O)cc4)[C@H](O)[C@@H](O)[C@@H]3O)/C2=C\C)O[C@H](CO)[C@@H](O)[C@@H]1O,> 80 µM
6,C/C=C1/[C@H](O[C@@H]2O[C@H](CO)[C@@H](O)[C@H](O)[C@H]2O)OC=C(C(=O)OC)[C@H]1CC(=O)O[C@@H]1[C@@H](O)[C@H](O[C@@H]2OC=C(C(=O)OC)[C@@H](CC(=O)OC[C@H]3O[C@@H](OCCc4ccc(O)cc4)[C@H](O)[C@@H](O)[C@@H]3O)/C2=C\C)O[C@H](CO)[C@H]1O,> 80 µM
7,C/C=C1/[C@H](O[C@@H]2O[C@H](CO)[C@@H](O)[C@H](O)[C@H]2O)OC=C(C(=O)OC)[C@H]1CC(=O)OC[C@H]1O[C@@H](Oc2ccc(/C=C/CO)cc2OC)[C@H](O)[C@@H](O)[C@@H]1O,> 80 µM
8,C/C=C1/[C@H](O[C@@H]2O[C@H](CO)[C@@H](O)[C@H](O)[C@H]2O)OC=C(C(=O)OC)[C@H]1CC(=O)OCCc1ccc(O)c(O)c1 [OLEUROPEIN],> 80 µM

# Continued by falling IC50, values first:
row,IC50,SMILES
1,58.3 µM,C/C=C1/[C@H](O[C@@H]2O[C@H](CO)[C@@H](O)[C@H](O)[C@H]2O)OC=C(C(=O)OC)[C@H]1CC(=O)OC[C@H]1O[C@@H](Oc2ccc(O)cc2)[C@H](O)[C@@H](O)[C@@H]1O
2,48.9 µM,C/C=C1/[C@H](O[C@@H]2O[C@H](CO)[C@@H](O)[C@H](O)[C@H]2O)OC=C(C(=O)OC)[C@H]1CC(=O)OC[C@H]1O[C@@H](OCCc2ccc(O)c(O)c2)[C@H](O)[C@@H](O)[C@@H]1O
3,42.1 µM,C/C=C1/[C@H](O[C@@H]2O[C@H](CO)[C@@H](O)[C@H](O)[C@H]2O)OC=C(C(=O)OC)[C@H]1CC(=O)O[C@H]1[C@H](OCCc2ccc(O)c(O)c2)O[C@H](CO)[C@@H](O)[C@@H]1O[C@@H]1O[C@@H](C)[C@H](O)[C@@H](O)[C@H]1O
4,32.5 µM,C/C=C1/[C@H](O[C@@H]2O[C@H](CO)[C@@H](O)[C@H](O)[C@H]2O)OC=C(C(=O)OC)[C@H]1CC(=O)OC[C@H]1O[C@@H](OCc2ccccc2)[C@H](O)[C@@H](O)[C@@H]1O
